Measured values: BindingDB's records for doi:10.1016/S0960-894X(97)10006-3 (1997)
pIC50: −log10 of the molar value.

Assay: Binding affinity for DHP (Dihydropyridine) site of L-type calcium channel of calf heart in the resting state

| Structure (SMILES) | pIC50 |
| --- | --- |
| CCOC(=O)C1=C(C)NC(C)=C(C#N)[C@@H]1c1cnccc1-c1cccc2ccccc12 | 6.57 |
| CCOC(=O)C1=C(C)NC(C)=C(C#N)[C@@H]1c1cnccc1-c1ccc2ccccc2c1 | 7.00 |
| CCOC(=O)C1=C(C)NC(C)=C(C#N)[C@@H]1c1cnccc1-c1ccccc1 | 6.60 |
